Experimental data as given in US20140147467A1, “Novel broth medium and blood free solid media” (priority 2012, published 2014).
Converted amounts (≈) assume the structure as drawn. Like-named read-outs stand apart in the source and are kept apart here.

Test system: P. salmonis
Experiment: MIC by broth micro dilution in Austral-SRS broth
Assay type: cell-based
Details: Piscirickettsia salmonis
[1] = P. salmonis ATCC VR-1361 (type strain), 18° C., read-out: MIC value
[2] = P. salmonis isolates (austral-005), 18° C., n=10, read-out: MIC values

CN(C)[C@@H]1C(O)=C(C(N)=O)C(=O)[C@@]2(O)C(O)=C3C(=O)c4c(O)cccc4[C@@](C)(O)[C@H]3[C@H](O)[C@@H]12 [oxytetracycline]
MIC: 0.124 µg/mL (≈ 0.269 µM) | MIC [1]: 0.25 to 0.5 µg/mL (≈ 0.543 to 1.09 µM) | MIC [2]: 0.125 to 2.5 µg/mL (≈ 0.271 to 5.43 µM)

CS(=O)(=O)c1ccc([C@@H](O)[C@@H](CF)NC(=O)C(Cl)Cl)cc1 [florfenicol]
MIC: 0.5 µg/mL (≈ 1.4 µM) | MIC [1]: 0.25 to 0.5 µg/mL (≈ 0.698 to 1.4 µM) | MIC [2]: 0.25 to 0.5 µg/mL (≈ 0.698 to 1.4 µM)
